Laboratory results reported in the CheMixHub viscosity set.
Where “and” joins values, the source holds several entries; their conditions need not be identical. Equal values may be shown once.

Assay: xn = mol fraction of the nth substance listed

COC(=O)c1ccccc1 + CCO
viscosity [mPa·s], 100 kPa
Details | x1 = 0.05 | x1 = 0.1 | x1 = 0.2 | x1 = 0.3 | x1 = 0.4 | x1 = 0.5 | x1 = 0.6 | x1 = 0.65 | x1 = 0.8 | x1 = 0.9
293.2 K | 1.178 | 1.178 | 1.207 | 1.26 | 1.325 | 1.402 | 1.489 | 1.536 | 1.701 | 1.842
298.2 K | 1.074 | 1.076 | 1.102 | 1.15 | 1.208 | 1.276 | 1.355 | 1.397 | 1.542 | 1.667
303.2 K | 0.98 | 0.983 | 1.008 | 1.052 | 1.106 | 1.167 | 1.238 | 1.276 | 1.408 | 1.518
308.2 K | 0.896 | 0.901 | 0.925 | 0.966 | 1.015 | 1.072 | 1.137 | 1.17 | 1.291 | 1.391
313.2 K | 0.822 | 0.827 | 0.851 | 0.89 | 0.936 | 0.988 | 1.047 | 1.079 | 1.188 | 1.279

Oc1cccc(Cl)c1 + CCO
Details | viscosity [mPa·s]
298.15 K, 101 kPa, x1 = 0.5 | 1.45

CCOCCOCCOCC + CCOC(=O)OCC
viscosity [mPa·s], 101.33 kPa
Details | 298.15 K | 308.15 K | 318.15 K
x1 = 0.0221 | 0.763 | 0.667 | 0.584
x1 = 0.0409 | 0.776 | 0.675 | 0.592
x1 = 0.0945 | 0.812 | 0.699 | 0.609
x1 = 0.1858 | 0.863 | 0.741 | 0.643
x1 = 0.2214 | 0.89 | 0.758 | 0.656
x1 = 0.2775 | 0.923 | 0.784 | 0.677
x1 = 0.3669 | 0.972 | 0.822 | 0.707
x1 = 0.4971 | 1.041 | 0.879 | 0.747
x1 = 0.5997 | 1.092 | 0.917 | 0.775
x1 = 0.6836 | 1.133 | 0.947 | 0.801
x1 = 0.7747 | 1.17 | 0.979 | 0.825
x1 = 0.8683 | 1.214 | 1.009 | 0.849
x1 = 0.9296 | 1.239 | 1.027 | 0.862
x1 = 0.9694 | 1.255 | 1.04 | 0.871

O=C(OCc1ccccc1)c1ccccc1 + CCOC(=O)c1ccccc1
298.15 K, 101 kPa
Details | viscosity [mPa·s]
x2 = 0.0465 | 8.039
x2 = 0.1549 | 6.898
x2 = 0.2475 | 6.108
x2 = 0.2973 | 5.695
x2 = 0.3945 | 4.948
x2 = 0.5054 | 4.309
x2 = 0.5941 | 3.74
x2 = 0.6906 | 3.249
x2 = 0.8023 | 2.749
x2 = 0.8963 | 2.371

O=C(OCc1ccccc1)c1ccccc1 + CCOC(=O)c1ccccc1C(=O)OCC
313.15 K, 101.33 kPa
Details | viscosity [mPa·s]
x1 = 0.25 | 5.87
x1 = 0.5 | 5.54
x1 = 0.75 | 5.27

O=C(OCc1ccccc1)c1ccccc1 + CCOC(C)=O
298.15 K, 101 kPa
Details | viscosity [mPa·s]
x2 = 0.0784 | 7.003
x2 = 0.1426 | 5.938
x2 = 0.2347 | 4.711
x2 = 0.3002 | 3.881
x2 = 0.4001 | 3.047
x2 = 0.5 | 2.299
x2 = 0.5863 | 1.789
x2 = 0.6973 | 1.275
x2 = 0.799 | 0.9116
x2 = 0.898 | 0.6406

CCNCCO + CCOCCOCCOCC
viscosity, 101.3 kPa
Details | x1 = 0.313 | x1 = 0.548 | x1 = 0.732 | x1 = 0.879 | x2 = 0.1906 | x2 = 0.3546 | x2 = 0.5618
293.15 K | 1.74 mPa·s | 2.601 mPa·s and 2.603 mPa·s | 4.275 mPa·s | 7.482 mPa·s | 5.481 mPa·s | 3.2 mPa·s | 2.028 mPa·s
303.15 K | 1.397 mPa·s | 2.007 mPa·s and 2.027 mPa·s | 3.137 mPa·s | 5.176 mPa·s | 3.902 mPa·s | 2.422 mPa·s | 1.604 mPa·s
313.15 K | 1.14 mPa·s | 1.584 mPa·s and 1.616 mPa·s | 2.372 mPa·s | 3.717 mPa·s | 2.88 mPa·s | 1.867 mPa·s | 1.291 mPa·s
323.15 K | 0.9463 mPa·s | 1.276 mPa·s and 1.317 mPa·s | 1.844 mPa·s | 2.764 mPa·s | 2.189 mPa·s | 1.478 mPa·s | 1.056 mPa·s

CCCCOCCO + CCc1ccccc1
viscosity [mPa·s], 101 kPa
Details | 298.15 K | 308.15 K
x1 = 0.0546 | 0.678 | 0.568
x1 = 0.1505 | 0.769 | 0.643
x1 = 0.2513 | 0.877 | 0.732
x1 = 0.3501 | 1.003 | 0.835
x1 = 0.4528 | 1.161 | 0.961
x1 = 0.4982 | 1.24 | 1.025
x1 = 0.55 | 1.339 | 1.103
x1 = 0.6497 | 1.56 | 1.277
x1 = 0.7511 | 1.831 | 1.487
x1 = 0.8507 | 2.156 | 1.736
x1 = 0.9614 | 2.601 | 2.071

CC(C)OCCO + CN1CCCC1=O
298.15 K, 101 kPa
Details | viscosity [mPa·s]
x1 = 0.004 | 1.691
x1 = 0.0105 | 1.702
x1 = 0.0362 | 1.729
x1 = 0.0624 | 1.753
x1 = 0.088 | 1.764
x1 = 0.1136 | 1.779
x1 = 0.1577 | 1.814
x1 = 0.2017 | 1.843
x1 = 0.2462 | 1.882
x1 = 0.3116 | 1.929
x1 = 0.3451 | 1.955
x1 = 0.3748 | 1.969
x1 = 0.4055 | 1.989
x1 = 0.4494 | 2.011
x1 = 0.5127 | 2.045
x1 = 0.5735 | 2.073
x1 = 0.6423 | 2.096
x1 = 0.7229 | 2.118
x1 = 0.7639 | 2.134
x1 = 0.8354 | 2.127
x1 = 0.9185 | 2.12
x1 = 0.9736 | 2.109
x2 = 0.0086 | 2.107

CC(C)OCCO + CN(C)C=O
298.15 K, 101 kPa
Details | viscosity [mPa·s]
x1 = 0.0025 | 0.815
x1 = 0.0124 | 0.827
x1 = 0.0296 | 0.854
x1 = 0.048 | 0.885
x1 = 0.0898 | 0.932
x1 = 0.1476 | 1.006
x1 = 0.1908 | 1.066
x1 = 0.2558 | 1.142
x1 = 0.3145 | 1.213
x1 = 0.344 | 1.247
x1 = 0.3645 | 1.274
x1 = 0.4159 | 1.34
x1 = 0.4723 | 1.42
x1 = 0.52 | 1.491
x1 = 0.562 | 1.543
x1 = 0.6131 | 1.617
x1 = 0.6641 | 1.697
x1 = 0.7547 | 1.818
x1 = 0.7959 | 1.874
x1 = 0.8833 | 2.005
x1 = 0.9392 | 2.069
x1 = 0.9642 | 2.093
x2 = 0.0058 | 2.104

COC(=O)c1ccccc1 + CN(C)C=O
viscosity [mPa·s], 101.3 kPa
Details | x2 = 0.1213 | x2 = 0.1914 | x2 = 0.2976 | x2 = 0.3961 | x2 = 0.5284 | x2 = 0.6218 | x2 = 0.7468 | x2 = 0.8028 | x2 = 0.9311
298.15 K | 1.74 | 1.644 | 1.507 | 1.388 | 1.239 | 1.141 | 1.02 | 0.969 | 0.86
303.15 K | 1.622 | 1.536 | 1.413 | 1.306 | 1.169 | 1.078 | 0.963 | 0.915 | 0.81
308.15 K | 1.524 | 1.447 | 1.334 | 1.235 | 1.107 | 1.022 | 0.913 | 0.867 | 0.764
313.15 K | 1.305 | 1.252 | 1.173 | 1.1 | 1.003 | 0.936 | 0.848 | 0.809 | 0.721

CCNCCO + CN(C)CCO
viscosity [mPa·s], 101.3 kPa
Details | x1 = 0.0999 | x1 = 0.2001 | x1 = 0.3 | x1 = 0.4 | x1 = 0.4998 | x1 = 0.6001 | x1 = 0.7 | x1 = 0.8002 | x1 = 0.9
293.15 K | 3.88 | 4.63 | 5.5 | 6.48 | 7.55 | 8.66 | 9.82 | 10.97 | 12.14
303.15 K | 2.92 | 3.31 | 3.85 | 4.47 | 5.17 | 5.88 | 6.63 | 7.39 | 8.16
313.15 K | 2.18 | 2.42 | 2.8 | 3.22 | 3.71 | 4.24 | 4.78 | 5.32 | 5.84
323.15 K | 1.79 | 1.95 | 2.15 | 2.39 | 2.68 | 2.98 | 3.3 | 3.62 | 3.93
